The subject of data set [1] is HL60, U937, MV411, Hut78, H929, and RAMOS. Briefly: Cytotoxic activity on six human blood cancer cell types with and without ATRA (overall statements). The format is cell-based. The note with it: all cell lines tested except RAMOS. As to the method:
Agent loading (e.g., “n” of Formula (I)) was determined to be about 4.
In this study and as determined by antibody cell staining, and with the exception of HL-60 cells, all cells expressed various levels of cell surface CD38 prior to ATRA addition.

Data set [2] concerns Ramos cells. The data set is described as follows: cells. The following applies: Homo sapiens, 72 h, read-out: EC50 in picoM, Ramos.
The test system of data set [3] is SU-DHL-8 cells. The data set is described as follows: cells. The following applies: Homo sapiens, SU-DHL-8, 72 h, read-out: EC50 in picoM, SUDHL8.
Data set [4] relates to Ramos cells. The note with it: for EC50: read-out: EC50 in picoM, Ramos, Table 3, agents and agent-linker intermediates, 3 days incubation.
Data set [5] has as its system SU-DHL-8 cells. The note with it: for EC50: read-out: EC50 in picoM, SUDHL8, Table 3, agents and agent-linker intermediates, 3 days incubation.

In general, EC50 refers to the concentration that produces a half-maximal response.

Where two headings read alike, the source gives them in different places. Some results are limits rather than exact numbers.

`CC1=C(/C=C/C(C)=C/C=C/C(C)=C/C(=O)O)C(C)(C)CCC1` [ATRA, all-trans-retinoic acid]: the “effect of ATRA alone on cell growth” value in data set [1] was “slowed cell growth”.

As for `CN(CCCN)CCCNC(=O)O[C@H]1CC[C@@]2(C)[C@H](CC[C@@H]3[C@@H]2CC[C@]2(C)[C@H](c4ccc(=O)oc4)CC[C@]32O)C1` [CEN-372, 5-[(1S,2S,5S,7R,10R,11S,14S,15R)-5-{3-[N-Methyl(3-aminopropyl)amino]propylaminocarbonyloxy}-11-hydroxy-2,15-dimethyltetracyclo[8.7.0.02, 7.011, 15]heptadec-14-yl]-2-pyranone], the figures for the EC50 in data set [2] and in data set [3] were 3.6 nM and 4.4 nM, respectively.

Take `C[C@]12CC[C@H](OC(=O)NCCCNCCCN)C[C@H]1CC[C@@H]1[C@@H]2CC[C@]2(C)[C@H](c3ccc(=O)oc3)CC[C@]12O` [CEN-373, 5-{(1S,2S,5S,7R,10R,11S,14S,15R)-5-[3-(3-Aminopropylamino)propylaminocarbonyloxy]-11-hydroxy-2,15-dimethyltetracyclo[8.7.0.02, 7.011, 15]heptadec-14-yl}-2-pyranone]: the EC50 in data set [2] worked out at 4 nM; in data set [3] it was 5.9 nM.

Take `C[C@]12CC[C@H](O)C[C@H]1CC[C@@H]1[C@@H]2CC[C@]2(C)[C@@H](c3ccc(=O)oc3)CC[C@]12O` [Bufalin, reference compound]: the “cytotoxic effect in Ramos cells, in words” value in data set [4] is “modestly active”. Further, the “cytotoxic effect in SU-DHL-8 cells, in words” value in data set [5] is listed as “modestly active”. Also, the EC50 amounted to 7.3 nM in data set [2] and 16 nM in data set [3].

On to `C[C@]1(OC(=O)NCCCN2CCN(CCCN)CC2)CC[C@@]2(C)[C@H](CC[C@@H]3[C@@H]2CC[C@]2(C)[C@](C)(c4ccc(=O)oc4)CC[C@]32O)C1` [CEN-371, 4-(3-{(1S,2S,5S,7R,10R,11S,14S,15R)-11-Hydroxy-2,5,14,15-tetramethyl-14-(6-oxo-3-pyranyl)tetracyclo[8 0.7.0.02, 7.011, 15]heptadec-5-yloxycarbonylamino}propyl)-1-(3-aminopropyl)piperazine], for which, in data set [4] (FIG. 4 legend, unconjugated antibody, linker-agent and agents), the “cytotoxic effect in Ramos cells, in words” value was “modestly active”. Also, the EC50 in data set [4] turned out to be 7.81 nM; in data set [5] it was 11 nM. In data set [5] (FIG. 2 and FIG. 3 legends, unconjugated antibody, linker-agent and agents), the “cytotoxic effect in SU-DHL-8 cells, in words” value is reported as “modestly active”.

For `C[C@]1(OC(=O)NCCCN2CCN(CCCN)CC2)CC[C@@]2(C)[C@H](CC[C@@H]3[C@@H]2CC[C@]2(C)[C@@](C)(C4=CC(=O)OC4)CC[C@]32O)C1` [CEN-381, 4-(3-{(1S,2S,5S,7R,10R,11S,14R,15R)-11-Hydroxy-2,5,14,15-tetramethyl-14-(5-oxo-2H-fur-3-yl)tetracyclo[8.7.0.02, 7.011, 15]heptadec-5-yloxycarbonylamino}propyl)-1-(3-aminopropyl)piperazine], the EC50 in data set [2] and in data set [3] was more than 50 nM in each case.

`C[C@]12CC[C@H](O)C[C@H]1CC[C@@H]1[C@@H]2CC[C@]2(C)[C@@H](C3=CC(=O)OC3)CC[C@]12O` [Digitoxigenin, reference compound]: the EC50 in data set [2] and in data set [3] was more than 50 nM each time.

In the case of `C[C@]12CC[C@H](OC3OC[C@H](N)[C@@H](O)[C@@H]3O)C=C1CC[C@@H]1[C@@H]2CC[C@]2(C)[C@@H](c3ccc(=O)oc3)CC[C@]12O` (stereo partly drawn) [CEN09-106, Scillarenin-4-amino-4-deoxy-L-xylopyranoside], the values for the 50% effective concentration (EC50) in data set [4] and in data set [5] were 1.9 nM and 2.07 nM, respectively.

(Values after patent US20170049908A1 (priority 2015, published 2017).)
